Read-outs that look alike come from different tables or passages of the source.
What was measured:
[1] = Rat PK&BBB (pharmacokinetics and brain penetration); assay type: in vivo, SD rats
Procedure: (§1) In this assay, the pharmacokinetic characteristics and ability to penetrate the blood-brain barrier of the compounds of the present application were assayed after administration of some of the compounds of the present application to SD rats, CD-1 mice or beagle dogs by single oral administration and intravenous injection.
(§2) 1. Intravenous (IV) injection group: an appropriate amount of the assay compound was weighed, and completely dissolved in an appropriate volume of vehicle. The mixture was stirred, vortexed and/or sonicated. Once a solution was obtained, the vehicle was gradually added to a final volume to reach the target concentration. The solution was vortexed, and sonicated to obtain a homogeneous solution. The solution was filtered through a […] PVDF membrane.
(§3) 2. Oral (PO) group: an appropriate amount of the assay compound was weighed, and completely dissolved in an appropriate volume of vehicle. The mixture was stirred, vortexed and/or sonicated. Once a solution was obtained, the vehicle was gradually added to a final volume to reach the target concentration. The solution was vortexed, and sonicated to obtain a homogeneous solution.
(§4) Meanwhile, the IV group was not fasted and the PO group was fasted overnight (>12 hrs) and given food 2 hrs after drug administration. All animals had free access to water. The dosing regimen and pharmacokinetic sampling regimen are given in Table 10 and Table 11 below, respectively.
Rats were administered according to the above protocol, and blood and brain tissue samples were collected and processed at predetermined time points (collection and processing were performed according to conventional methods in the art).
(§5) The brain was weighed and homogenized by adding 4 times of ultrapure water. Six times volume of acetonitrile was added respectively to the whole blood samples and brain homogenate (20 times volume of acetonitrile was added to the whole blood sample of mouse PK). The mixture was vortexed for 1 min and then centrifuged at 4° C., 4500 rpm for 15 min. According to the instrument response, the supernatant was diluted with diluent and the sample was analyzed by LC/MS.
(§6) Pharmacokinetic parameters were calculated using WinNonlin software. The following pharmacokinetic parameters were calculated if appropriate plasma/whole blood drug concentration-time data were available: CL (clearance); Vd (apparent volume of distribution); T1/2 (elimination half-life time); Cmax (peak concentration); Tmax (time to peak); AUC (area under plasma drug concentration-time curve); MRT (mean retention time); F % (bioavailability).

[2] = test system: L929 cells; test: Inhibition of cell necrosis (CCK8 method), L929 cells; assay type: cell-based, mouse; conditions: Mus musculus, L929, L929, Murine TNF-α/Z-VAD-FMK, 4-8 hours, CCK8
Procedure, shortened: (§7)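 HT29 (1.2×10^4/well) and L929 (2.0×10^4/well) cells were pretreated 30 min with compound, 9-point 4-fold series from 10 μM in duplicate. Necrosis was induced with human TNF-α 20 ng/mL, AT-406 […] and Z-VAD-FMK 20 μM for 16 h (HT29), or murine TNF-α 20 ng/mL and Z-VAD-FMK 25 μM for 4-8 h (L929). CCK8 viability; IC50 from dose-effect curve.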

[3] = test system: HT29 cells; test: Inhibition of cell necrosis (CCK8 method), HT29 cells; assay type: cell-based, human; conditions: Homo sapiens, HT-29, 16 h, HT29, Human TNF-α/AT-406/Z-VAD-FMK, 16 hours, CCK8
Procedure, shortened: as §7

[4] = Beagle PK (pharmacokinetics); assay type: in vivo, beagle dogs; conditions: whole blood, Beagle dog
Procedure: as §1, §2, §3, §4, §5, §6

[5] = Sprague-Dawley, rat, whole blood, iv, 3 mg/kg, IV 3 mg/kg, read-out: Blood drug concentration
[6] = Sprague-Dawley, rat, whole blood, po, 30 mg/kg, PO 30 mg/kg, read-out: Blood drug concentration
[7] = IV 1 mg/kg, read-out: Blood drug concentration
[8] = PO 3 mg/kg, read-out: Blood drug concentration

## CC(C)(O)COc1ccc(F)c(-c2ccnc(N3CCC(C(=O)N4N=CC[C@H]4c4cc(F)cc(F)c4)CC3)c2)c1 (racemic) [Example 42]
[1]; SD, rat, whole blood, iv, 3 mg/kg, IV 3 mg/kg, 24 hr, read-out: Blood drug concentration
  concentration at 24 hr: 19.9 ± 2.4 ng/mL
[1]; SD, whole blood, IV 3 mg/kg
  AUC(0-inf): 4140 ± 234 ng·h/mL
  AUC(0-t): 3990 ± 225 ng·h/mL
  Vd: 5.5 ± 0.38 L/kg
  half-life: 315 ± 8.4 min
[1]; SD, whole blood, IV 3 mg/kg, read-out: Cl—obs
  clearance: 12.1 ± 0.7 mL/min/kg
[1]; SD, whole blood, PO 30 mg/kg
  AUC(0-inf): 26500 ± 3060 ng·h/mL
  AUC(0-t): 24200 ± 2750 ng·h/mL
  Cmax: 1580 ± 205 ng/mL
  Tmax: 6 ± 1.73 h
  half-life: 380 ± 93.6 min
[1]; SD, whole blood, PO 30 mg/kg vs IV 3 mg/kg
  bioavailability: 64 ± 7.4%
[1]; Sprague-Dawley, brain / whole blood, PO 30 mg/kg, 2 h after administration, read-out: Brain/blood ratio
  Kp at 2 h: 0.915
[1]; Sprague-Dawley, rat, brain, po, 30 mg/kg, PO 30 mg/kg, 2 h after administration, read-out: Brain concentration
  concentration at 2 h: 1970 ng/g
[1]; [5]
  concentration at 0 h: 0 ng/mL
  concentration at 0.25 h: 565 ± 166 ng/mL
  concentration at 0.5 h: 445 ± 70 ng/mL
  concentration at 1 h: 368 ± 53 ng/mL
  concentration at 4 h: 269 ± 25 ng/mL
  concentration at 7 h: 199 ± 23 ng/mL
[1]; Sprague-Dawley, rat, whole blood, iv, 3 mg/kg, IV 3 mg/kg, 0.083 hr, read-out: Blood drug concentration
  concentration at 0.083 h: 798 ± 302 ng/mL
[1]; Sprague-Dawley, rat, whole blood, iv, 3 mg/kg, IV 3 mg/kg, 2 hr, read-out: Blood drug concentration
  concentration at 2 h: 303 ± 39 ng/mL
[1]; [6]
  concentration at 0 h: 0 ng/mL
  concentration at 0.25 h: 266 ± 89 ng/mL
  concentration at 0.5 h: 654 ± 74 ng/mL
  concentration at 1 h: 1250 ± 67 ng/mL
  concentration at 4 h: 1380 ± 387 ng/mL
  concentration at 7 h: 1550 ± 153 ng/mL
[1]; Sprague-Dawley, rat, whole blood, po, 30 mg/kg, PO 30 mg/kg, 2 hr, read-out: Blood drug concentration
  concentration at 2 h: 1300 ± 178 ng/mL
[1]; Sprague-Dawley, rat, whole blood, po, 30 mg/kg, PO 30 mg/kg, 24 hr, read-out: Blood drug concentration
  concentration at 24 h: 237 ± 95 ng/mL
[1]; Sprague-Dawley, rat, whole blood, po, 30 mg/kg, PO 30 mg/kg, whole blood, 2 h after administration, read-out: Blood drug concentration
  concentration at 2 h: 2150 ng/mL
[2]
  IC50: ≤ 10 nM
[3]
  IC50: ≤ 10 nM
[4]; IV 1 mg/kg
  AUC(0-inf): 3380 ± 342 ng·h/mL
  AUC(0-t): 2920 ± 268 ng·h/mL
  Vd: 3.7 ± 1.05 L/kg
  half-life: 523 ± 180 min
[4]; [7]
  concentration at 0 hr: 0 ng/mL
  concentration at 0.25 hr: 451 ± 77 ng/mL
  concentration at 0.5 h: 390 ± 13 ng/mL
  concentration at 1 h: 253 ± 49 ng/mL
  concentration at 2 h: 236 ± 69 ng/mL
  concentration at 4 h: 176 ± 29 ng/mL
  concentration at 7 h: 133 ± 14 ng/mL
[4]; IV 1 mg/kg, 0.083 hr, read-out: Blood drug concentration
  concentration at 0.083 hr: 535 ± 62 ng/mL
[4]; IV 1 mg/kg, 24 hr, read-out: Blood drug concentration
  concentration at 24 hr: 32.9 ± 13.5 ng/mL
[4]; IV 1 mg/kg, read-out: Cl—obs
  clearance: 4.97 ± 0.51 mL/min/kg
[4]; PO 3 mg/kg
  AUC(0-inf): 18000 ± 939 ng·h/mL
  AUC(0-t): 11200 ± 2940 ng·h/mL
  Cmax: 1510 ± 396 ng/mL
  Tmax: 1.17 ± 0.76 h
  half-life: 1090 ± 300 min
[4]; PO 3 mg/kg vs IV 1 mg/kg
  bioavailability: 127 ± 28%
[4]; [8]
  concentration at 0 hr: 0 ng/mL
  concentration at 0.25 hr: 645 ± 362 ng/mL
  concentration at 0.5 h: 1320 ± 406 ng/mL
  concentration at 1 h: 1170 ± 696 ng/mL
  concentration at 2 h: 1320 ± 320 ng/mL
  concentration at 4 h: 560 ± 231 ng/mL
  concentration at 7 h: 406 ± 145 ng/mL
[4]; PO 3 mg/kg, 24 hr, read-out: Blood drug concentration
  concentration at 24 h: 260 ± 19 ng/mL

— patent US20250074892A1, “CARBONYL BRIDGED HETEROCYCLIC COMPOUND, AND COMPOSITION AND APPLICATION THEREOF” (BEIJING SCITECH-MQ PHARMACEUTICALS LIMITED, priority 2022, published 2025)
